Results on 18 molecules are retold here after PubChem BioAssay AID1259408 (Genetic Toxicology Data Bank (GENE-TOX), 2018).

Activity calls are given as the source filed them. How the calls were made is not given here.

This series has as its system GENE-TOX genotoxicity assays, various organisms and cells. In words: GENE-TOX mutagenicity studies. Particulars: for call: Assay Type: In vivo carcinogenicity studies.
The mark [1] stands for this setting: Species/Cell Type: Drosophila melanogaster, Assay Type: Sex-linked recessive lethal gene mutation, Assay Code: SRL+, Evaluation Type: Evaluation A (Pre-1980).
Setting [2] is: Species/Cell Type: Nonhuman, Assay Code: CCG+, Evaluation Type: Evaluation A (Pre-1980).
[3] abbreviates: Species/Cell Type: Syrian hamster embryo (SA7/SHE) cells, Assay Type: Cell transformation, viral enhanced, Assay Code: CT7+, Evaluation Type: Evaluation A (Pre-1980).
[4] abbreviates: Species/Cell Type: Chinese hamster ovary (CHO) cells, Assay Type: Forward gene mutation at the HPRT locus, Assay Code: CHO+, Evaluation Type: Evaluation B (Post-1980).
Where [5] appears, read: Species/Cell Type: Salmonella typhimurium (one or more of the five standard strains: TA98, TA100, TA1535, TA1537, and TA1538), Assay Type: Histidine reverse gene mutation, Ames assay, Assay Code: SAL+*, Activation: With metabolic activation, Evaluation Type: Evaluation A (Pre-1980).
Setting [6] is: Species/Cell Type: Nonhuman, Assay Type: Sister-chromatid exchange (SCE) in vitro, Assay Code: SC2+, Evaluation Type: Evaluation B (Post-1980).

Regarding `S=P(N1CC1)(N1CC1)N1CC1`, the mutagenic call under setting [1] was “active; positive”; the mutagenic call (Species/Cell Type: Human lymphocytes or leukocytes, Assay Type: Chromosome aberrations in vitro, Assay Code: CY7+, Evaluation Type: Evaluation A (Pre-1980)) was “active; positive”; the mutagenic call (Species/Cell Type: Human lymphocytes, Assay Type: Sister-chromatid exchange (SCE) in vitro, Assay Code: SCL+D, Dose Response: With dose response, Evaluation Type: Evaluation B (Post-1980)) was “active; positive”; the mutagenic call (Species/Cell Type: Human, Assay Type: Sister-chromatid exchange (SCE) in vitro, Assay Code: SC1+D, Dose Response: With dose response, Evaluation Type: Evaluation B (Post-1980)) is “active; positive”; the mutagenic call (Species/Cell Type: Mammalian polychromatic erythrocytes, Assay Type: Micronucleus test, chromosome aberrations, Assay Code: MNT+, Evaluation Type: Evaluation A (Pre-1980)) was “active; positive”; the mutagenic call (Species/Cell Type: Mouse (C3H/10T1/2) cells, Assay Type: Cell transformation, Assay Code: CTH+, Evaluation Type: Evaluation A (Pre-1980)) was “active; positive”. For the same molecule, the mutagenic call reads like this: (Species/Cell Type: Mouse, Sex: Male, Assay Type: Heritable translocation test, chromosome aberrations, Assay Code: HTT+, Evaluation Type: Evaluation A (Pre-1980)) “active; positive”; (Species/Cell Type: Mouse, Sex: Male, Assay Type: Sperm morphology, Assay Code: SPI+, Evaluation Type: Evaluation A (Pre-1980)) “active; positive”; (Species/Cell Type: Nonhuman bone marrow, Assay Type: Chromosome aberrations, in vivo, Assay Code: CY#+D, Dose Response: With dose response, Evaluation Type: Evaluation A (Pre-1980)) “active; positive”; (Species/Cell Type: Nonhuman, Assay Type: Chromosome aberrations in vitro, Assay Code: CY&+, Evaluation Type: Evaluation A (Pre-1980)) “active; positive”; (Species/Cell Type: Nonhuman, Assay Type: Sister-chromatid exchange (SCE) in vitro, Assay Code: SC2+D, Dose Response: With dose response, Evaluation Type: Evaluation A (Pre-1980)) “active; positive”; (Species/Cell Type: Rodents, Sex: Male, Assay Type: Dominant lethal test, Assay Code: DLT+D, Dose Response: With dose response, Evaluation Type: Evaluation A (Pre-1980)) “active; positive”. The mutagenic call (Species/Cell Type: Saccharomyces cerevisiae, Assay Type: Mitotic recombination or gene conversion, Assay Code: YEC+, Evaluation Type: Evaluation A (Pre-1980)) was “active; positive”; the mutagenic call (Species/Cell Type: Salmonella typhimurium (one or more of the five standard strains: TA98, TA100, TA1535, TA1537, and TA1538), Assay Type: Histidine reverse gene mutation, Ames assay, Assay Code: SAL+, Evaluation Type: Evaluation A (Pre-1980)) was “active; positive”; the mutagenic call (Species/Cell Type: Salmonella typhimurium, Assay Type: Forward and reverse gene mutation, host-mediated assay, Assay Code: HMA+, Evaluation Type: Evaluation A (Pre-1980)) was “active; positive”; the mutagenic call (Species/Cell Type: Vicia faba, Assay Type: Chromosome aberrations, Assay Code: VIC+D, Dose Response: With dose response, Evaluation Type: Evaluation A (Pre-1980)) was “active; positive”. Under setting [2], the call is “active; positive”.
Regarding `COCCl`, the call (Species/Cell Type: Nonhuman, Assay Code: CCG+L, Evaluation Type: Evaluation A (Pre-1980)) was “active; positive”. Moreover, the mutagenic call under setting [3] is “active; positive”.
In the case of `C=CN(C)N=O`, the mutagenic call under setting [1] was “active; positive”. For the same molecule, the call under setting [2] is “active; positive”.
Regarding `ClCCCl`, the mutagenic call reads like this: under setting [4], “active; positive”; (Species/Cell Type: Drosophila melanogaster, Assay Type: Aneuploidy, sex chromosome gain, chromosome aberrations, Assay Code: DAG+F, Evaluation Type: Evaluation A (Pre-1980)) “active; positive”; (Species/Cell Type: Drosophila melanogaster, Assay Type: Aneuploidy, whole sex chromosome loss, chromosome aberrations, Assay Code: DAC+F, Evaluation Type: Evaluation A (Pre-1980)) “active; positive”; under setting [1], “active; positive”; (Species/Cell Type: Escherichia coli polA (W3119 vs P3478), Assay Type: Rec-assay, DNA effects (bacterial DNA repair), Assay Code: RE1+, Evaluation Type: Evaluation A (Pre-1980)) “active; positive”; under setting [5], “active; positive”. The mutagenic call reads like this: (Species/Cell Type: Salmonella typhimurium, Assay Type: Forward and reverse gene mutation, body fluid assay, Assay Code: BFU+, Evaluation Type: Evaluation A (Pre-1980)) “active; positive”; under setting [3], “active; positive”. For the same molecule, under setting [2], the call is “active; positive”.
For the molecule `O=c1cc(O)c2ccccc2[nH]1`, the mutagenic call under setting [5] is “active; positive”.
Take `c1ccc2nc3ccccc3cc2c1`: for the setting “Species/Cell Type: Saccharomyces cerevisiae, Assay Type: Forward gene mutation, Assay Code: YEFT, Evaluation Type: Evaluation A (Pre-1980)”, the mutagenic call is on record as “no conclusion”.
For `COC1=C2C[C@@H](C)C[C@H](OC)[C@H](O)[C@@H](C)/C=C(\C)[C@H](OC(N)=O)[C@@H](OC)/C=C\C=C(/C)C(=O)NC(=CC1=O)C2=O`, the mutagenic call (Species/Cell Type: Fischer rat embryo (RLV/1706) cells, Assay Type: Cell transformation, viral enhanced, Assay Code: CTR-, Evaluation Type: Evaluation A (Pre-1980)) was “inactive; negative”.
For the molecule `c1cc2cc3c4c(ccc5cc6c(c1CCC6)c2c54)CCC3`, under setting [5], the mutagenic call is “active; positive”.
The same measure, in the same setting: next, `O=C1c2cccc(O)c2C(=O)c2c(O[C@@H]3O[C@H](CO)[C@@H](O)[C@H](O)[C@H]3O)cccc21`: “active; positive”.
With `O=NN(CCCCO)CCCCO`, under “Species/Cell Type: Salmonella typhimurium (one or more of the five standard strains: TA98, TA100, TA1535, TA1537, and TA1538), Assay Type: Histidine reverse gene mutation, Ames assay, Assay Code: SALT, Evaluation Type: Evaluation A (Pre-1980)”, the mutagenic call is “no conclusion”.
As to `COCC(C)OS(C)(=O)=O` (configuration not stated), where the note is “Species/Cell Type: Hordeum vulgare (barley), Assay Type: Chromosome aberrations, Assay Code: HOC+D, Dose Response: With dose response, Evaluation Type: Evaluation A (Pre-1980)”, the mutagenic call was “active; positive”.
In the case of `O=CONC(=O)c1ccc2ccccc2c1`, where the note is “Species/Cell Type: Nonhuman, Assay Type: Sister-chromatid exchange (SCE) in vitro, Assay Code: SC2+D, Dose Response: With dose response, Evaluation Type: Evaluation B (Post-1980)”, the mutagenic call is “active; positive”.
For `CO[C@@H]1C[C@](C)(O)Cc2cc3c(c(O)c21)C(=O)c1c(O)cc2c(c1C3=O)O[C@@H]1O[C@@]2(C)[C@H](O)[C@@H](N(C)C)[C@@H]1O`, the mutagenic call by setting is: (Species/Cell Type: Mammalian polychromatic erythrocytes, Assay Type: Micronucleus test, chromosome aberrations, Assay Code: MNT+, Evaluation Type: Evaluation B (Post-1980)) “active; positive”; under setting [6], “active; positive”.
Turning to `C[C@@H](CC[C@H](C)OS(C)(=O)=O)OS(C)(=O)=O`, the mutagenic call (Species/Cell Type: Rodents, Sex: Male, Assay Type: Dominant lethal test, Assay Code: DLT+, Evaluation Type: Evaluation A (Pre-1980)) was “active; positive”.
On to `CO[C@@H]1[C@H](O)C[C@@H](O[C@@H]2C[C@H](Oc3cc4cc5c(c(O)c4c(O)c3C)C(=O)[C@@H](O[C@H]3C[C@@H](O[C@H]4C[C@@H](O[C@H]6C[C@](C)(O)[C@@H](OC(C)=O)[C@H](C)O6)[C@H](O)[C@@H](C)O4)[C@H](O)[C@@H](C)O3)[C@H]([C@H](OC)C(=O)[C@@H](O)[C@@H](C)O)C5)O[C@H](C)[C@@H]2OC(C)=O)O[C@@H]1C`, for which the mutagenic call under setting [4] was “active; positive”.
Consider `Cc1cc(C(C)(C)C)c(O)c(C(C)(C)C)c1`, for which the mutagenic call by setting is: (Species/Cell Type: Allium cepa, Assay Type: Chromosome aberrations, Assay Code: ALC+, Evaluation Type: Evaluation A (Pre-1980)) “active; positive”; (Species/Cell Type: Drosophila melanogaster, Assay Type: Aneuploidy, whole sex chromosome loss, chromosome aberrations, Assay Code: DAC+M, Evaluation Type: Evaluation A (Pre-1980)) “active; positive”; (Species/Cell Type: Drosophila melanogaster, Assay Type: Sex-linked recessive lethal gene mutation, Assay Code: SRL-, Evaluation Type: Evaluation A (Pre-1980)) “inactive; negative”; (Species/Cell Type: Drosophila melanogaster, Sex: Male, Assay Type: Heritable translocation test, chromosome aberrations, Assay Code: DHTT, Evaluation Type: Evaluation A (Pre-1980)) “no conclusion”; (Species/Cell Type: Mammalian polychromatic erythrocytes, Assay Type: Micronucleus test, chromosome aberrations, Assay Code: MNTT, Evaluation Type: Evaluation A (Pre-1980)) “no conclusion”; (Species/Cell Type: Mouse, Sex: Male, Assay Type: Specific locus test, gene mutation, Assay Code: SLT-, Evaluation Type: Evaluation A (Pre-1980)) “inactive; negative”. In addition, the mutagenic call reads like this: (Species/Cell Type: Mouse, Sex: Male, Assay Type: Sperm morphology, Assay Code: SPIT, Evaluation Type: Evaluation A (Pre-1980)) “no conclusion”; (Species/Cell Type: Salmonella typhimurium (one or more of the five standard strains: TA98, TA100, TA1535, TA1537, and TA1538), Assay Type: Histidine reverse gene mutation, Ames assay, Assay Code: SAL-, Evaluation Type: Evaluation A (Pre-1980)) “inactive; negative”.
With `COCCOc1cnc(NS(=O)(=O)c2ccccc2)nc1`, under “Species/Cell Type: Nonhuman, Assay Type: Sister-chromatid exchange (SCE) in vivo, Assay Code: SC3T, Evaluation Type: Evaluation B (Post-1980)”, the mutagenic call is listed as “no conclusion”.
Turning to `CN=[N+]([O-])Cc1ccc(C(=O)NC(C)C)cc1`, the mutagenic call under setting [6] was “active; positive”.
